The numbers were not newly measured in US20100137844A1, “Delivery devices for modulating inflammation” (Searete LLC, a limited liability corporation of the State …, priority 2008, published 2010), which cites them from elsewhere.

The conditions of series [1]: 400 mg infused over one hour, single agent.
The target in another series is Fyn (Homo sapiens, UniProt P06241). To be noted: at nanomolar concentrations.
Series [2] relates to proteasomal activity in cultured breast cancer cells. To be noted: via copper binding.

Chain of Fyn (P06241 whole entry): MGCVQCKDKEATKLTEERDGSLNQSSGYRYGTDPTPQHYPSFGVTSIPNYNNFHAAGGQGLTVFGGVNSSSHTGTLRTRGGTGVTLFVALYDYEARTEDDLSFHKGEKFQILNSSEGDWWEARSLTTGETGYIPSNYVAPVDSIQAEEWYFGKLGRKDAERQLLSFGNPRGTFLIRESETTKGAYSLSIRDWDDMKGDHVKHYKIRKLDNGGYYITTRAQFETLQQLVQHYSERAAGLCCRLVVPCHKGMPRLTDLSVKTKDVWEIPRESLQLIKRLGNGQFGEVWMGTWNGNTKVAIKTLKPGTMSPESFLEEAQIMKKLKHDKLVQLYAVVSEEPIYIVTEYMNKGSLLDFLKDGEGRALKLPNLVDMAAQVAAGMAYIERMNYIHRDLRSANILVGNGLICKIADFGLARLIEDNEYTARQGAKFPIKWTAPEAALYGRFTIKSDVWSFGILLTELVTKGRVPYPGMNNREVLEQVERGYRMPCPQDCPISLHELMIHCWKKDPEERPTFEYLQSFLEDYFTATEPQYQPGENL

With `CCN(CC)CCCC(C)Nc1ccnc2cc(Cl)ccc12.O=P(O)(O)O.O=P(O)(O)O` (centres unmarked) [chloroquine phosphate, 7-chloro-4-[[4-(diethylamino)-1-methylbutyl]amino]quinoline phosphate (1:2)], the “tolerability of intravenous infusion” value in series [1] was “without complication”.

Consider `Cc1nc(Nc2ncc(C(=O)Nc3c(C)cccc3Cl)s2)cc(N2CCN(CCO)CC2)n1.O` [dasatinib, N-(2-chloro-6-methylphenyl)-2-[[6-[4-(2-hydroxyethyl)-1-piperazinyl]-2-methyl-4-pyrimidinyl]amino]-5-thiazolecarboxamide, monohydrate], for which the “inhibition of Fyn” value on Fyn is “inhibits”.

As for `Cl.Cl.Nc1ccccc1Oc1ccc2c(N)nsc2c1` [Example M62812, 3-amino-6-(2-aminophenoxy)-1,2-benzisothiazole dihydrochloride], in the series on mice, the “prevention of lethal septic shock” value was “prevents lethal septic shock in mice”.

Consider `CCN(CC)C(=S)SSC(=S)N(CC)CC` [disulfiram, 1-(diethylthiocarbamoyldisulfanyl)-N,N-diethyl-methanethioamide], for which the proteasomal activity result in series [2] is “inhibits proteasomal activity”. In addition, the “inhibition of aldehyde dehydrogenase” value in the series with aldehyde dehydrogenase is recorded as “inhibits aldehyde dehydrogenase without toxicity”.
